Source: patent publication US7258862B2, “Mushroom extracts having anticancer activity” (Gavish-Galilee Bio Aplications Ltd., priority 2004, dated 2007)
Entries after “also recorded” stand apart in the source; their conditions may differ.

Columns and labels:
Assay type in all cases: cell-based, human
[1] = system: K562 cells; experiment: Apostain ELISA assay (DNA condensation, apoptosis) in K562 cells; conditions: 48 h; for Relative Apostain Value: K562, solvent-treated sample = 1
[2] = system: p210^Bcr-Abl; experiment: Western blot of p210 Bcr-Abl expression in K562 cells; conditions: extracts 500 μg/ml and 250 μg/ml, AG957 10 μM and 20 μM, 48 hours, Western blot (FIGS. 3A-3B)
[3] = system: PARP; experiment: PARP cleavage Western blot in K562 cells; conditions: 500 μg/ml and 250 μg/ml, 48 hours, Western blot (FIGS. 2A-2B)
[4] = system: K562 cells; experiment: Erythroid differentiation: hemoglobin production in K562 cells

Structure (SMILES) | Relative Apostain Value ([1]; 10 μM) | Relative Apostain Value ([1]; 20 μM) | Induction of apoptosis / increase in DNA condensation in K562 cells (in words) ([1]; extracts 250 and 500 μg/ml, AG957 10 μM) | Effect on p210^Bcr-Abl expression levels in K562 cells (in words) [2] | Cleavage of PARP in K562 cells (in words) [3] | Relative Hemoglobin ([4]; 1 mM, day 5, K562, solvent-treated sample = 1.0) | Induction of hemoglobin production / erythroid differentiation in K562 cells (in words) ([4]; day 5 post-treatment, versus DMSO-treated cells)
COC(=O)c1ccc(NCc2cc(O)ccc2O)cc1 [AG957] | 6.2 | 3.9 | significantly induced an increase in DNA condensation | reduction in Bcr-Abl protein levels | significantly activates PARP cleavage; also recorded: significant cleavage of PARP | – | –
CCCC(=O)O [Butyric Acid, butyric acid] | – | – | – | – | – | 9.4 | active in inducing hemoglobin expression
